Test results from patent US5079254A, “Derivatives of 6-aminooctahydroindolizinetriol” (Merrell Dow Pharmaceuticals Inc., priority 1990, dated 1992).

Tests used:
[1] = biological target: hexosaminidase from human placenta; test: Inhibition of hexosaminidase activity, 4-nitrophenyl-N-acetyl-β-glucosaminide substrate, 96-well microplate (human placenta enzyme); assay type: biochemical; conditions: pH 4.5, 10 min preincubation at room temperature, substrate 30 min at 37° C., read at 405 nm
Experimental: (§1) In a preliminary screen, test compounds are studied over a range of concentrations from 0.1 to 100 μg/ml. together with a control sample. Specifically, the test compound is added to individual wells and made up to a total volume of 100 μl. To each well is added 25 μl of 1M sodium citrate buffer pH 4.5 and 25 μl of enzyme (1 mμ) in 10 mM sodium citrate at pH 4.5. The material is mixed and incubated at room temperature for 10 minutes. Then 50 μl of 10 mM substrate (4-nitrophenyl-N-acetyl-8-glucosaminide, Sigma # N-91376) is added and the mixture is incubated at 37° C. for 30 minutes. The reaction is then killed by adding 100 μl of 2% sodium carbonate and the yellow color due to release of 4-nitrophenol is read at 405 nm in an Elisa reader. The results obtained in this preliminary screen are then examined and, if inhibition has taken place, the procedure is repeated using several concentrations over a narrower range to provide for a more precise determination of the IC50.

[2] = biological target: hexosaminidase from porcine placenta; test: Inhibition of hexosaminidase activity, 4-nitrophenyl-N-acetyl-β-glucosaminide substrate, 96-well microplate (porcine placenta enzyme); assay type: biochemical; conditions: pH 4.5, 10 min preincubation at room temperature, substrate 30 min at 37° C., read at 405 nm
Experimental: as §1

Lewis lung tumor cell = conditions: female mice implanted with Lewis lung tumor cell; Bernacki, page 93; cited from earlier work

| SMILES | IC50 value for the inhibition of hexosaminidase from human placenta [1] | IC50 value for the inhibition of hexosaminidase from porcine placenta [2] | increase of life span (Lewis lung tumor cell) |
| --- | --- | --- | --- |
| CC(=O)N[C@H]1CN2CC[C@H](O)[C@@H]2[C@@H](O)[C@@H]1O [[1S-(1α,6β,7α,8β,8aβ)]-6-acetamidooctahydro-1,7,8-indolizinetriol] | 0.1 µg/mL | 0.1 µg/mL | – |
| CC(=O)NC1=CO[C@H](CO)[C@@H](O)[C@@H]1O [2-acetamidoglucal] | – | – | 63% |
